Data from article PMC9898036, “VIP152 is a selective CDK9 inhibitor with pre-clinical in vitro and in vivo efficacy in chronic lymphocytic leukemia” (Leukemia, 2022).

Columns and labels:
ZAP70 = ZAP70 (Homo sapiens, UniProt P43403); experiment: KINOMEscan: ZAP70; format: binding; conditions: 100 nM, read-out: Percent Control
MAP3K1 = MAP3K1 (Homo sapiens, UniProt Q13233); experiment: KINOMEscan: MAP3K1; format: binding; conditions: 1000 nM, read-out: Percent Control
IGF1R = IGF1R (Homo sapiens, UniProt P08069); experiment: KINOMEscan: IGF1R; format: binding; conditions: 1000 nM, read-out: Percent Control
CSNK1D = CSNK1D (Homo sapiens, UniProt P48730); experiment: KINOMEscan: CSNK1D; format: binding; conditions: 1000 nM, read-out: Percent Control
EPHA2 = EPHA2 (Homo sapiens, UniProt P29317); experiment: KINOMEscan: EPHA2; format: binding; conditions: 1000 nM, read-out: Percent Control
ULK3 = ULK3 (Homo sapiens, UniProt Q6PHR2); experiment: KINOMEscan: ULK3; format: binding; conditions: 100 nM, read-out: Percent Control
[1] = biological target: RPS6KA4(Kin.Dom.1-N-terminal) (Homo sapiens, UniProt O75676); experiment: KINOMEscan: RPS6KA4(Kin.Dom.1-N-terminal); format: binding; conditions: 100 nM, read-out: Percent Control
EGFR = EGFR (Homo sapiens, UniProt P00533); experiment: KINOMEscan: EGFR; format: binding; conditions: 1000 nM, read-out: Percent Control
[2] = biological target: T1, EGFR(L747-S752del, P753S) (Homo sapiens, UniProt P00533, DEL747-752/P753S); experiment: biochemical; design: DiscoverX KINOMEscan kinase panel, per cent of control (100 = no effect), single concentrations; conditions: per cent of control, KINOMEscan; read-out: Percent Control
Method: (§1) The structure and synthesis of VIP152 were recently described by Lücking et al.. (Fig. 1A); however, the selectivity of the molecule in cellular systems has yet to be explored. […] We also performed this experiment at 1000 nM, where CDK9 was inhibited at 99%. […] We found a strong concordance between our data and those of Lücking when comparing the most inhibited kinases. Potential off-target effects of VIP152 were next tested in vitro at a concentration of 10 µM for off-target activity against a broad range of receptors, transporters, ion channels, and enzymes (n = 138) using the Eurofins Diversity Panel. […] A Chemical structure of VIP152.

EGFR(L747-T751del,Sins) [3] = biological target: EGFR(L747-T751del,Sins) (Homo sapiens, UniProt P00533, DEL747-750/T751S); experiment: biochemical; design: DiscoverX KINOMEscan kinase panel, per cent of control (100 = no effect), single concentrations; conditions: per cent of control, KINOMEscan; read-out: Percent Control
Method: as §1

FLT3(ITD) = FLT3(ITD) (Homo sapiens, UniProt P36888, ITD); experiment: biochemical; design: DiscoverX KINOMEscan kinase panel, per cent of control (100 = no effect), single concentrations; conditions: per cent of control, KINOMEscan; read-out: Percent Control
Method: as §1

[4] = biological target: EGFR(L747-E749del, A750P) (Homo sapiens, UniProt P00533, A750P/DEL747-749); experiment: biochemical; design: DiscoverX KINOMEscan kinase panel, per cent of control (100 = no effect), single concentrations; conditions: per cent of control, KINOMEscan; read-out: Percent Control
Method: as §1

FLT3(ITD,F691L) = FLT3(ITD,F691L) (Homo sapiens, UniProt P36888, F691L/ITD); experiment: biochemical; design: DiscoverX KINOMEscan kinase panel, per cent of control (100 = no effect), single concentrations; conditions: per cent of control, KINOMEscan; read-out: Percent Control
Method: as §1

FLT3(ITD,D835V) = FLT3(ITD,D835V) (Homo sapiens, UniProt P36888, D835V/ITD); experiment: biochemical; design: DiscoverX KINOMEscan kinase panel, per cent of control (100 = no effect), single concentrations; conditions: per cent of control, KINOMEscan; read-out: Percent Control
Method: as §1

[5] = biological target: T1, EGFR(L747-S752del, P753S); experiment: KINOMEscan: EGFR(L747-S752del, P753S); format: binding; conditions: 1000 nM, read-out: Percent Control
Target sequence in this assay (P00533 with tags, fused parts or gaps DEL747-752/P753S limits assumed): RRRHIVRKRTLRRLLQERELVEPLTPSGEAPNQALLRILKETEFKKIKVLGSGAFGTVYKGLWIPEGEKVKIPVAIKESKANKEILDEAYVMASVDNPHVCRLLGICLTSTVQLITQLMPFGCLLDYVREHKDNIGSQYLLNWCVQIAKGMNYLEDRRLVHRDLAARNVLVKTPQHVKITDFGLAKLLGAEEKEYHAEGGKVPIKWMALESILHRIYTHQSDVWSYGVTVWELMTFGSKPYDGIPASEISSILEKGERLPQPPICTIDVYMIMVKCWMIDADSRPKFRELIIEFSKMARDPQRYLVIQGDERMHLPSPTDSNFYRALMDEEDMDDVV

ERK3 = ERK3 (Homo sapiens, UniProt Q16659); experiment: KINOMEscan: ERK3; format: binding; conditions: 1000 nM, read-out: Percent Control
Adrenergic α2A = biological target: T2, Adrenergic α2A (Homo sapiens, UniProt P08913); experiment: Eurofins Diversity Panel; format: binding; conditions: hum
T2 construct: purchased Eurofins
T2 sequence (P08913 1-465): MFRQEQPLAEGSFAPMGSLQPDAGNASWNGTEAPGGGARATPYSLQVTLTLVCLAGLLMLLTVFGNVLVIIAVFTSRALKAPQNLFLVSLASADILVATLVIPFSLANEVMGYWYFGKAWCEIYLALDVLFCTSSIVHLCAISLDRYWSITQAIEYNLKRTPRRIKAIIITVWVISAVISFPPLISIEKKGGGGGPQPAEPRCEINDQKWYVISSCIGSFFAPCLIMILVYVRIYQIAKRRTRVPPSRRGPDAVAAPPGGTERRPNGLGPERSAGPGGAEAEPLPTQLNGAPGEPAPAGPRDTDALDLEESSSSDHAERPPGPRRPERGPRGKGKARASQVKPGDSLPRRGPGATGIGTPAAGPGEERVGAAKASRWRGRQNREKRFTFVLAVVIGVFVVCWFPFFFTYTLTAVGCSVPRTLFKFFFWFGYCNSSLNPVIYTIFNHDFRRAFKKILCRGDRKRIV

MST3 = MST3 (Homo sapiens, UniProt Q9Y6E0); experiment: KINOMEscan: MST3; format: binding; conditions: 1000 nM, read-out: Percent Control
MET(Y1235D) = MET(Y1235D) (Homo sapiens, UniProt P08581, Y1235D); experiment: KINOMEscan: MET(Y1235D); format: binding; conditions: 1000 nM, read-out: Percent Control
GRK2 = GRK2 (Homo sapiens, UniProt P25098); experiment: KINOMEscan: GRK2; format: binding; conditions: 1000 nM, read-out: Percent Control
[6] = test system: TP53 R175H and R248Q mutated HG-3 cell lines; experiment: Annexin V/propidium iodide flow cytometry; format: cell-based, human; conditions: 24, 48, and 72 h
EGFR(L747-T751del,Sins) [7] = experiment: KINOMEscan: EGFR(L747-T751del,Sins); format: binding, human; conditions: 1000 nM
MAPKAPK5 = MAPKAPK5 (Homo sapiens, UniProt Q8IW41); experiment: KINOMEscan: MAPKAPK5; format: binding; conditions: 1000 nM, read-out: Percent Control
MET = MET (Homo sapiens, UniProt P08581); experiment: KINOMEscan: MET; format: binding; conditions: 1000 nM, read-out: Percent Control
ULK2 = ULK2 (Homo sapiens, UniProt Q8IYT8); experiment: KINOMEscan: ULK2; format: binding; conditions: 100 nM, read-out: Percent Control

Sequence of RPS6KA4(Kin.Dom.1-N-terminal) (O75676 1-371 limits assumed): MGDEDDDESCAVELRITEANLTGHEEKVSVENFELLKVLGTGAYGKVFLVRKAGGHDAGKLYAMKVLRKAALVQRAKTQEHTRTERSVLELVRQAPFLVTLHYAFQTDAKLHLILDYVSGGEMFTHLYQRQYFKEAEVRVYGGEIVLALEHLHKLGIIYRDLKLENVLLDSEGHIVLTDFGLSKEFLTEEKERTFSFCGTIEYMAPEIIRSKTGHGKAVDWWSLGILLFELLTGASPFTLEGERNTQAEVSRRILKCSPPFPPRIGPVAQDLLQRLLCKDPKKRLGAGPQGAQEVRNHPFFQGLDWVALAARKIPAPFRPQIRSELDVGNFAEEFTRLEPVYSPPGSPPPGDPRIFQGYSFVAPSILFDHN
Sequence of IGF1R (P08069 31-1367): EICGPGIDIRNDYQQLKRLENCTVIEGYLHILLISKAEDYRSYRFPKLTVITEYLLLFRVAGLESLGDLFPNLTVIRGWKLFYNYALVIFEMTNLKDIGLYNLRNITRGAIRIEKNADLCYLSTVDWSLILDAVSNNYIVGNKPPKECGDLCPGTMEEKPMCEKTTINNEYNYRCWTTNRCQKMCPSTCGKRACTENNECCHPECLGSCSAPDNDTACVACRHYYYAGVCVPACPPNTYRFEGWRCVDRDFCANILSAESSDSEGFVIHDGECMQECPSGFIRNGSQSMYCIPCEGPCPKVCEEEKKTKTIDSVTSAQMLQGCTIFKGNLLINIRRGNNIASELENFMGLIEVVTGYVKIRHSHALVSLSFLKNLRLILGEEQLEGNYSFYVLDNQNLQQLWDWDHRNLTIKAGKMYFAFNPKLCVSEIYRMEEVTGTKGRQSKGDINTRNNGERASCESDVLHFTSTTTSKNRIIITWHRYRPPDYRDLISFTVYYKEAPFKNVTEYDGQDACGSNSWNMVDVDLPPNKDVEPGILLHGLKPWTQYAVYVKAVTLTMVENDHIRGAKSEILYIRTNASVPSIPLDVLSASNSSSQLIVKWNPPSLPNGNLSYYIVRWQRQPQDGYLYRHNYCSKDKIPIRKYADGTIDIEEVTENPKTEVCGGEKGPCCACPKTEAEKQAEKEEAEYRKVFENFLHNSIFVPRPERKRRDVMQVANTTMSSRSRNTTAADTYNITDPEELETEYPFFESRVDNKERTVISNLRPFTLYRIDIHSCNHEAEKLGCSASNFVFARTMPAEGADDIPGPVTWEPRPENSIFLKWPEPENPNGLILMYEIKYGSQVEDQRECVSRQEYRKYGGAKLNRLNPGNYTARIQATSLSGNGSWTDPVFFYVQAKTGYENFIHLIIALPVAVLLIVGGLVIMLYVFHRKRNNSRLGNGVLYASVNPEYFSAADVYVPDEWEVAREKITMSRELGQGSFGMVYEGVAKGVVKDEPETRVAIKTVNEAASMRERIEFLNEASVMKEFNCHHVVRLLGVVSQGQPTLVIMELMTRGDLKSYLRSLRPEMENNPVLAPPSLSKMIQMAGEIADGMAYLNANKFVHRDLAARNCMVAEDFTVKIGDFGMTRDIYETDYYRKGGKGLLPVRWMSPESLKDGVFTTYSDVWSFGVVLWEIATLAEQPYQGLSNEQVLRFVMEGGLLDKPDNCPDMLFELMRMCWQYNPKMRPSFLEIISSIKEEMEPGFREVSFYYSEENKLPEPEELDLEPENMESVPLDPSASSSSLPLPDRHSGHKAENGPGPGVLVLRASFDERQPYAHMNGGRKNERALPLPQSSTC
Sequence of GRK2 (P25098 whole entry): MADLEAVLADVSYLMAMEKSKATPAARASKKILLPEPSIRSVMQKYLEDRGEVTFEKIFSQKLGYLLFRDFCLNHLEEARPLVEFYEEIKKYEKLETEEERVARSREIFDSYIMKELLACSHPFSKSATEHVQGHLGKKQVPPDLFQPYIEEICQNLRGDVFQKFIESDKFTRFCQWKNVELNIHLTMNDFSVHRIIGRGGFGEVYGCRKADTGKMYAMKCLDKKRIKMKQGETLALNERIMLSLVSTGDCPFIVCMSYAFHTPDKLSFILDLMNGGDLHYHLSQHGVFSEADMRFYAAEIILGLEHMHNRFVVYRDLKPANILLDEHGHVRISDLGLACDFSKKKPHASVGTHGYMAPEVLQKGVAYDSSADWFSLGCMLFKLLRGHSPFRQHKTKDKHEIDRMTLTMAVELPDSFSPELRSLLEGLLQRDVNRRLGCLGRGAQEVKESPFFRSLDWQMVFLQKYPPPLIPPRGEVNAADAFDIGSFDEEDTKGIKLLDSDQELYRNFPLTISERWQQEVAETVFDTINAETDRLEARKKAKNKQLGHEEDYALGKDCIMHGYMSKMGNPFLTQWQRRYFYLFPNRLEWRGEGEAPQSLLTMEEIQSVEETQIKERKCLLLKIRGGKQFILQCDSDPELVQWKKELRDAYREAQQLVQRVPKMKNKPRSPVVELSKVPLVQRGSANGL
Sequence of ULK3 (Q6PHR2 whole entry): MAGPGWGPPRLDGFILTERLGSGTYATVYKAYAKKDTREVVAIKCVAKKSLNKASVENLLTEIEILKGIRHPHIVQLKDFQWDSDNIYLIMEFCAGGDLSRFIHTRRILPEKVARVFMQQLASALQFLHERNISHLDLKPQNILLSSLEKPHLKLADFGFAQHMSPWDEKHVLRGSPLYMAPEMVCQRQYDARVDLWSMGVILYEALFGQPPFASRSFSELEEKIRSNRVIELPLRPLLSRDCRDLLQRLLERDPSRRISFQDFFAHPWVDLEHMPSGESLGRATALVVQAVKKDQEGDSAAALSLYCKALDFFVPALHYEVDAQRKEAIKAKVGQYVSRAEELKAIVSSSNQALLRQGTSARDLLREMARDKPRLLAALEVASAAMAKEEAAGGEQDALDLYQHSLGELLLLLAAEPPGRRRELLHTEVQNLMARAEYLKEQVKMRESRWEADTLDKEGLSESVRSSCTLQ
Sequence of EGFR(L747-E749del, A750P) (P00533 with tags, fused parts or gaps DEL747-749/A750P): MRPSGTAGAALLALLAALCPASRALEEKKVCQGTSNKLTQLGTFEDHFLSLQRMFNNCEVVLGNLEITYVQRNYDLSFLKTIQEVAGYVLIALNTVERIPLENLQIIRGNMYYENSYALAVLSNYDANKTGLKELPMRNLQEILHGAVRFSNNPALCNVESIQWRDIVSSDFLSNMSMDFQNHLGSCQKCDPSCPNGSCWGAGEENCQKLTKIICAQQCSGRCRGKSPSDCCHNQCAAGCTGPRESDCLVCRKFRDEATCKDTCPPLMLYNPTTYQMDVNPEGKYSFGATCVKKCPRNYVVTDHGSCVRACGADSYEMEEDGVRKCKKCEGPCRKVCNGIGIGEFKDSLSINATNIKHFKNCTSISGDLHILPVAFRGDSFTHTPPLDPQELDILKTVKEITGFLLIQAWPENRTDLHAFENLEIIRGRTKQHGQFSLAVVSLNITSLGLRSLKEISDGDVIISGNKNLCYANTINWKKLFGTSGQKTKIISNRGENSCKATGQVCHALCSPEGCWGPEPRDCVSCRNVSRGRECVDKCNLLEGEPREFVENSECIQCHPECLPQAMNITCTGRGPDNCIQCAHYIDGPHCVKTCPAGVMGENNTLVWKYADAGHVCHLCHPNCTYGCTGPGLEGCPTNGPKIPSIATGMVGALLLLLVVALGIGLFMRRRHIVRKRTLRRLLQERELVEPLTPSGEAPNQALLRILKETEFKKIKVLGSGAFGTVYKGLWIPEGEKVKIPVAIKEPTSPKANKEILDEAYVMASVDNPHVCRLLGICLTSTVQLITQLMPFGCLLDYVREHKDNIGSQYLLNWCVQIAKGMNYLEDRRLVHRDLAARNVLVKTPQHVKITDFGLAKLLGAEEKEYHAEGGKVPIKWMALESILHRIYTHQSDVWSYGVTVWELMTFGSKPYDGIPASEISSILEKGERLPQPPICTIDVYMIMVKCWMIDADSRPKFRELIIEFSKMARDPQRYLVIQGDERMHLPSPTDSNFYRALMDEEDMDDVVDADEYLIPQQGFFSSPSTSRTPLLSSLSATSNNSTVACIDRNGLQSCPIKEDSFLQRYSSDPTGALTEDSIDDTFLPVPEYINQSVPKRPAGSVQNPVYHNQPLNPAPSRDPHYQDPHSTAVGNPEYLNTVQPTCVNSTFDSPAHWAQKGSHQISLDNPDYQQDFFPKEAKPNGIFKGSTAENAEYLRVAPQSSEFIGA
Sequence of MST3 (Q9Y6E0 whole entry): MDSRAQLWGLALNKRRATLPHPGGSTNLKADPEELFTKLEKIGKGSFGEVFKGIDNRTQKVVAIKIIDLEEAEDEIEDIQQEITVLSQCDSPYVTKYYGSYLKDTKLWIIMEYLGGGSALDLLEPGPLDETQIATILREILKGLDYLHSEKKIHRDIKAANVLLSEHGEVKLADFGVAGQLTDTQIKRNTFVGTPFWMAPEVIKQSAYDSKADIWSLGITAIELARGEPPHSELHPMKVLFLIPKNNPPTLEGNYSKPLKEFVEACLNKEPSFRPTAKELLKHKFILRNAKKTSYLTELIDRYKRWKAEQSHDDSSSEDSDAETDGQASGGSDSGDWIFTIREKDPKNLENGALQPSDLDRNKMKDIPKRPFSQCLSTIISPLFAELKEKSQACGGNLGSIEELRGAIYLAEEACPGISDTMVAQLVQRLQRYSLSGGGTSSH

SMILES: COc1cc(F)ccc1-c1cc(Nc2cc(CS(C)(=N)=O)ccn2)ncc1F (stereo not shown) [VIP152]
- remaining binding at 0.1 µM (ZAP70): 99%
- remaining binding at 1 µM (MAP3K1): 78%
- remaining binding at 1 µM (IGF1R): 100%
- remaining binding at 1 µM (CSNK1D): 94%
- remaining binding at 1 µM (EPHA2): 97%
- remaining binding at 0.1 µM (ULK3): 96%
- remaining binding at 0.1 µM [1]: 100%
- remaining binding at 1 µM (EGFR): 81%
- remaining binding at 0.1 µM [2]: 93%
- remaining binding at 0.1 µM (EGFR(L747-T751del,Sins) [3]): 100%
- remaining binding at 0.1 µM (FLT3(ITD)): 100%
- remaining binding at 0.1 µM [4]: 100%
- remaining binding at 0.1 µM (FLT3(ITD,F691L)): 99%
- remaining binding at 0.1 µM (FLT3(ITD,D835V)): 100%
- remaining binding at 1 µM [5]: 94%
- remaining binding at 1 µM (ERK3): 84%
- IC50 (Adrenergic α2A): 64 nM
- Ki (Adrenergic α2A): 32 nM
- nH (Adrenergic α2A): 0.94
- inhibition at 10 µM (Adrenergic α2A; Conc. 10 μM): 100%
- remaining binding at 1 µM (MST3): 94%
- remaining binding at 1 µM (MET(Y1235D)): 19%
- remaining binding at 1 µM (GRK2): 98%
- cytotoxicity [6]: significant levels of cytotoxicity
- Percent Control (EGFR(L747-T751del,Sins) [7]): 97%
- remaining binding at 1 µM (MAPKAPK5): 89%
- remaining binding at 1 µM (MET): 26%
- remaining binding at 0.1 µM (ULK2): 100%
